{"source": "patent US7339065B2", "about": "“Design and synthesis of optimized ligands for PPAR” (Bethesda Pharmaceuticals, Inc., priority 2003, dated 2008)", "key": {"[1]": {"tested_on": "human psoriasis skin engrafted onto severe combined immunodeficient (SCID) mice", "assay": "SCID mouse, human skin transplant model of psoriasis", "format": "in vivo", "text": "Background: Human psoriasis skin engrafted onto severe combined immunodeficient (SCID) mice maintains its abnormal histologic characteristics in the absence of any treatment. Treatment of this SCID mouse, human skin transplant model of psoriasis with anti-psoriatic drugs will improve the histologic phenotype of the transplanted psoriatic skin. Thus, the SCID mouse with transplanted human psoriatic skin represents a useful model of psoriasis and can be used to test the therapeutic effects of antipsoriatic drugs (as described in the following references: 1) Nickoloff B J, Kunkel S L, Burdick […]. Severe combined immunodeficiency mouse and human psoriatic skin chimeras. Validation of a new animal model. Am J Pathol. 1995; 146:580-588. […] Archives of Dermatology 136:609-616, 2000). Methods: Keratome pieces of lesional psoriasis skin were transplanted onto immunodeficient mice (such as CB17 strain) as previously described (Nickoloff B J, Kunkel S L, Burdick […]. Am J Pathol. 1995; 146:580-588. Ellis […], Fisher […], Benson S C, Kurtz T W. Archives of Dermatology. 136:609-616, 2000). The transplanted tissue was allowed to heal for four weeks after which six animals were treated once daily for 4-8 weeks by topical application of BP107 to the psoriatic skin in concentrations sufficient to exert an antipsoriatic effect (concentrations ranging from 0.1 micromolar to 10 millimolar in appropriate amounts of vehicle such as DMSO, propylene glycol, or other vehicles familiar to those skilled in the art). At the end of the treatment period, the animals were sacrificed, tissue pieces were fixed in 10% buffered formalin, embedded in paraffin, sectioned, stained with hematoxylin and eosin, and evaluated histologically using techniques familiar to those skilled in the art. Animals topically treated with the corresponding vehicle without any BP107 were used as controls."}, "PPARdelta": {"molecular_target": "T1, PPARdelta (Homo sapiens, UniProt Q03181)", "T1 construct": "uses chimeric receptors where the PPAR LBD is fused to the DBD of the yeast transcription factor GAL4; expressed in transfected cells", "T1 sequence (Q03181 211-439 limits assumed)": "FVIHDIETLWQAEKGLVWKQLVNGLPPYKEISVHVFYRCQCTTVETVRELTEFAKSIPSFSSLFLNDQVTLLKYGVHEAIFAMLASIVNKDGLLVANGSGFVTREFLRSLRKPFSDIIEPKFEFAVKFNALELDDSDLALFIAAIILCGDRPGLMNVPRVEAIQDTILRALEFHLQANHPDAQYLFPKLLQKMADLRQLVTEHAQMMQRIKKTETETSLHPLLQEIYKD", "assay": "cell based transactivation assay, PPARdelta", "settings": "activation, transactivation assay in vitro; read-out: EC50 for PPAR isoforms: PPARdelta", "description": "(§1) The binding of agonist ligands to the receptor results in changes in the expression level of mRNAs encoded by PPAR target genes. This process, “transactivation”, is determined by cell-based assays which monitor this functional activity. Transactivation assays use cells that have been transfected with a vector expressing the receptor as well as a second vector containing a DNA direct repeat (DR-1) response element and a reporter gene, which encodes an enzyme such as chloramphenicol acetyltransferase, secreted placental alkaline phosphatase, or firefly luciferase. […]\n(§2) The binding of agonist ligands to a nuclear receptor results in transactivation, i.e., changes in the expression level of mRNAs encoded by PPAR target genes. […] Activation of the receptor by agonist ligands leads to induction of reporter enzyme expression, which can be conveniently assayed using standard colorimetric or photometric plate readers. […]"}, "PPARalpha": {"molecular_target": "T2, PPARalpha (Homo sapiens, UniProt Q07869)", "T2 construct": "uses chimeric receptors where the PPAR LBD is fused to the DBD of the yeast transcription factor GAL4; expressed in transfected cells", "T2 sequence (Q07869 239-466 limits assumed)": "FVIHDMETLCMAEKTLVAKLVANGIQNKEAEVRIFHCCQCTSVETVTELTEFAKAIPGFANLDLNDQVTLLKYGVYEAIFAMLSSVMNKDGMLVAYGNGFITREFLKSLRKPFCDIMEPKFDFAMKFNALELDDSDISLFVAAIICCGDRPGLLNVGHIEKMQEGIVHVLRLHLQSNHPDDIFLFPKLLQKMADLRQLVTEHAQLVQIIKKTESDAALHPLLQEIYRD", "assay": "cell based transactivation assay, PPARalpha", "settings": "activation, transactivation assay in vitro; read-out: EC50 for PPAR isoforms: PPARalpha", "description": "as §1, §2"}, "PPARgamma": {"molecular_target": "T3, PPARgamma (Homo sapiens, UniProt P37231)", "T3 construct": "uses chimeric receptors where the PPAR LBD is fused to the DBD of the yeast transcription factor GAL4; expressed in transfected cells", "T3 sequence (P37231 238-503 limits assumed)": "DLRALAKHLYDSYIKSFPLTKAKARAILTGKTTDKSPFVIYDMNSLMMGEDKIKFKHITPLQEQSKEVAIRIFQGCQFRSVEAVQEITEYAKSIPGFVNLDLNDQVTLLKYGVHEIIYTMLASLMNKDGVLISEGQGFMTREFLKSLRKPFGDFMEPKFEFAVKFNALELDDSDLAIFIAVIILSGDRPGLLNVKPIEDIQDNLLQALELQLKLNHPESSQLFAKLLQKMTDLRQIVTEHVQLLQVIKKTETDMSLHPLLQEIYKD", "assay": "cell based transactivation assay, PPARgamma", "settings": "activation, transactivation assay in vitro; read-out: EC50 for PPAR isoforms: PPARgamma", "description": "as §1, §2"}, "[2]": {"settings": "topical, once daily for 4-8 weeks, histology"}}, "note": "pEC50: −log10 of the molar value."}
{"smiles": "CN(CCOc1ccc(CC2SC(=O)NC2=O)cc1)C(=O)CCCCC1C2CC3CC(C2)CC1C3", "note": "(stereo not drawn) [BP 107, 5-Adamantan-2-yl-pentanoic acid {2-[4-(2,4-dioxo-thiazolidin-5-ylmethyl)-phenoxy]-ethyl}-methyl-amide]", "values": [{"measurement": "antipsoriatic effect compared to animals treated with troglitazone or rosiglitazone", "setting": "[1]; topical BP107 vs weaker PPAR gamma activators", "result": "much better"}, {"measurement": "granular layer", "setting": "[1]; [2]", "result": "present in much of the epidermis"}, {"measurement": "inflammatory response", "setting": "[1]; [2]", "result": "reduced"}, {"measurement": "pattern of epidermal differentiation", "setting": "[1]; [2]", "result": "more normal pattern"}, {"measurement": "overall skin thickness", "setting": "[1]; topical, once daily for 4-8 weeks, histology, vs vehicle controls", "result": "reduced"}, {"measurement": "anti-psoriatic effect compared to control animals", "setting": "[1]; topical, once daily for 4-8 weeks, controls treated with vehicle", "result": "clearly evident"}, {"measurement": "pEC50", "setting": "PPARdelta", "result": "< 5.00"}, {"measurement": "pEC50", "setting": "PPARalpha", "result": "< 5.00"}, {"measurement": "pEC50", "setting": "PPARgamma", "result": "> 9.00"}]}
